The source of these data is patent US11306064B2, “Benzothia(di)azepine compounds and their use as bile acid modulators” (Albireo AB, priority 2018, dated 2022).

Molecules are shown by their SMILES.

The target in one experiment is T1, Human LBAT (Homo sapiens, UniProt Q14973).
T1 construct: expressed in transfected cells; kept under Geneticin selection
T1 sequence (Q14973 1-349): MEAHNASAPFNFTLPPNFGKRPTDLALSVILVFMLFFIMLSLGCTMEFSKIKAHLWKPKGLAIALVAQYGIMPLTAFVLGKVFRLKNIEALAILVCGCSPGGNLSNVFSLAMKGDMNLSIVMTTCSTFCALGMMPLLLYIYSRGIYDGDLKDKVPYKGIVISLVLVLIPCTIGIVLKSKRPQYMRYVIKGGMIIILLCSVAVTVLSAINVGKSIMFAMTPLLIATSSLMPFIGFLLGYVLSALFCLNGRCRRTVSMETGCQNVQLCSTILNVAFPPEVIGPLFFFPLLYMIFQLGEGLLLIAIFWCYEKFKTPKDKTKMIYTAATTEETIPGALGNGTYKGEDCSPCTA
Kind of experiment: LBAT (h/m) assay: 3H-taurocholic acid uptake in human LBAT-overexpressing cells. It counts as cell-based. The settings on record: 0.3 μM 3H-taurocholic acid and 7.5 μM cold taurocholic acid, 20 minutes, read-out: hLBAT IC50. The procedure:
LBAT (h/m) Assay Protocol
20,000 cells (Human or Mouse LBAT-overexpressing cells) were seeded in 96-wells plate (Corning CLS3809) in 100 μL MEM-alpha medium (Gibco 12571-063) supplemented with 10% FBS (Gibco 10438026) containing Geneticin (Gibco 10131-027) (1 mg/mL) and incubated at 37° C. in 5% CO2 for 24 hours. After incubation, media was decanted from the wells and cells were washed two times with 300 μL of basal MEM-alpha medium (FBS-free). After decanting basal MEM-alpha medium each time, plates were tapped against paper towel to ensure maximum removal of residual media. For human LBAT, incubation mix was prepared by adding test inhibitor dilutions (3-fold serial dilution in DMSO (Sigma D2650), 10 points) in MEM-alpha (without FBS) containing 0.3 μM 3H-taurocholic acid (ARC ART-1368) and 7.5 μM cold taurocholic acid (Sigma T4009) (maintaining 0.2% final DMSO concentration). For mouse LBAT, incubation mix was prepared by adding test inhibitor dilutions (3-fold serial dilution in DMSO, 10 points) in MEM-alpha (without FBS) containing 0.3 μM 3H-taurocholic acid and 25 μM cold taurocholic acid maintaining 0.2% final DMSO concentration).
50 μL of incubation mix containing test inhibitors was then added to the wells (in duplicate) and the plates were incubated for 20 minutes in a CO2 incubator at 37° C. After incubation, the reaction was stopped by keeping the plates on ice water mix for 2-3 minutes and then the incubation mix was aspirated completely from the wells. The wells were washed two times with 250 μL of chilled unlabelled 1 mM taurocholic acid dissolved in HEPES (Gibco 15630080)-buffered (10 mM) HBSS (Gibco 14175079) (pH 7.4). The plates were tapped against a paper towel after every wash to ensure maximum removal of blocking buffer.
100 μL of MicroScint-20 (PerkinElmer 6013621) was added to the wells and kept overnight at room temperature before reading the plates in TopCount NXT™ Microplate Scintillation and Luminescence Counter from PerkinElmer under 3H Test protocol (set at 120 seconds reading time per well, with normal plate orientation).
(§1) Preparation of Test Compound Dilutions
(§2) All test compounds were provided in powder form at room temperature. 10 mM DMSO stocks of the test compounds were prepared, aliquoted and stored at −20° C. From the 10 mM DMSO stock of the compounds, a 3-fold serial dilution in DMSO was prepared to get a total of 10 dilutions of the test compounds. 0.5 μL of this dilution in DMSO was added to 250 μL of FBS-free basal media containing 3H-taurocholic acid and cold taurocholic acid to prepare the incubation mixture.

Another experiment addresses T2, Human ASBT (Homo sapiens, UniProt Q12908).
T2 construct: expressed in transfected cells; kept under Puromycin selection
T2 sequence (Q12908 1-348): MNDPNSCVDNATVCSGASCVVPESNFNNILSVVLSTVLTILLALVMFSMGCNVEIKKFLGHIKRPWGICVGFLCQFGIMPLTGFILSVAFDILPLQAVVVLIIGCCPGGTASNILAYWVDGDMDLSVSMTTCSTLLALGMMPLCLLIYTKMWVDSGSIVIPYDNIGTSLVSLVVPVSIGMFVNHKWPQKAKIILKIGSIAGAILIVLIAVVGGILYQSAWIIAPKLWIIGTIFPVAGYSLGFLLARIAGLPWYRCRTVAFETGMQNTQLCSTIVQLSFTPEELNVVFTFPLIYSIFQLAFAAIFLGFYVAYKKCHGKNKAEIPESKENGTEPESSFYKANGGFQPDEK
Kind of experiment: ASBT (h/m) assay: 3H-taurocholic acid uptake in human ASBT-overexpressing cells. It counts as cell-based. The note with it: 0.25 μM 3H-taurocholic acid and 5 μM cold taurocholic acid, 20 minutes, read-out: hASBT IC50. The method, then:
ASBT (h/m) Assay Protocol
10,000 cells (Human or Mouse ASBT-overexpressing cells) were seeded in 96-wells plate (Corning CLS3809) in 200 μL MEM-alpha medium (Gibco 12571-063) supplemented with 10% FBS (Gibco 10438026) containing Puromycin (Gibco A1113803) (10 μg/mL) and incubated at 37° C. in 5% CO2 for 48 hours. After incubation, media was decanted from the wells and cells were washed two times with 300 μL of basal MEM-alpha medium (FBS-free). After decanting basal MEM-alpha medium each time, plates were tapped against paper towel to ensure maximum removal of residual media. Test inhibitor dilutions (highest test concentration being 10 μM, 3-fold serial dilution, 10 points) prepared in DMSO (Sigma D2650) were added in incubation mix (maintaining 0.2% final DMSO concentration) containing 0.25 μM 3H-taurocholic acid (ARC ART-1368) and 5 μM of cold taurocholic acid (Sigma T4009). 50 μL of incubation mix containing test inhibitors was then added to the wells (in duplicate) and the plates were incubated for 20 minutes in a CO2 incubator at 37° C. After incubation, the reaction was stopped by keeping the plates on ice water mix for 2-3 minutes and then the incubation mix was aspirated completely from the wells. The wells were washed two times with 250 μL of chilled unlabelled 1 mM taurocholic acid dissolved in HEPES (Gibco 15630080)-buffered (10 mM) HBSS (Gibco 14175079) (pH 7.4). The plates were tapped against a paper towel after every wash to ensure maximum removal of blocking buffer.
100 μL of MicroScint-20 (PerkinElmer 6013621) was added to the wells and kept overnight at room temperature before reading the plates in TopCount NXT™ Microplate Scintillation and Luminescence Counter from PerkinElmer under 3H Test protocol (set at 120 seconds reading time per well).
as §1, §2

For orientation: IC50 means the concentration needed to halve the response being measured. As to `CCCCC1(CCCC)CN(c2ccc(O)cc2)c2cc(SC)c(O/C=C/C(=O)O)cc2S(=O)(=O)C1` [Example 20, (E)-3-((3,3-dibutyl-5-(4-hydroxyphenyl)-7-(methylthio)-1,1-dioxido-2,3,4,5-tetrahydro-1,5-benzothiazepin-8-yl)oxy)acrylic Acid], the IC50 on Human LBAT is 1.3 µM; on Human ASBT, 0.02 µM.

In the case of `CCCCC1(CCCC)CN(c2ccccc2)c2cc(SCC)c(O/C=C/C(=O)O)cc2S(=O)(=O)C1` [Example 67, (E)-3-((3,3-dibutyl-7-(ethylthio)-1,1-dioxido-5-phenyl-2,3,4,5-tetrahydro-1,5-benzothiazepin-8-yl)oxy)acrylic Acid], the IC50 is 0.461 µM at Human LBAT and 0.192 µM at Human ASBT.

Turning to `CCCCC1(CCCC)CN(c2ccccc2)c2cc(Br)c(O/C=C/C(=O)O)cc2S(=O)(=O)N1` [Example 75, (E)-3-((7-bromo-3,3-dibutyl-1,1-dioxido-5-phenyl-2,3,4,5-tetrahydro-1,2,5-benzothiadiazepin-8-yl)oxy)acrylic Acid], the IC50 at Human LBAT turned out to be 0.349 µM; on Human ASBT, 0.148 µM.

On to `CCCCC1(CC)CN(c2ccccc2)c2cc(N(C)C)c(O/C=C/C(=O)O)cc2S(=O)(=O)C1` (centres unmarked) [Example 80, (E)-3-((3-butyl-7-(dimethylamino)-3-ethyl-1,1-dioxido-5-phenyl-2,3,4,5-tetrahydro-1,5-benzothiazepin-8-yl)oxy)acrylic Acid], for which the figures for the IC50 on Human LBAT and at Human ASBT were 0.828 µM and 0.0075 µM, respectively.

Take `CCCCC1(CCCC)CN(c2ccccc2)c2cc(F)c(O/C=C/C(=O)O)cc2S(=O)(=O)C1` [Example 81, (E)-3-((3,3-dibutyl-7-fluoro-1,1-dioxido-5-phenyl-2,3,4,5-tetrahydro-1,5-benzothiazepin-8-yl)oxy)acrylic Acid]: the figures for the IC50 on Human LBAT and on Human ASBT were 0.21 µM and 0.771 µM, respectively.

For the molecule `CCCCC1(CCCC)CN(c2ccccc2)c2cc(C#N)c(O/C=C/C(=O)O)cc2S(=O)(=O)C1` [Example 82, (E)-3-((3,3-dibutyl-7-cyano-1,1-dioxido-5-phenyl-2,3,4,5-tetrahydro-1,5-benzothiazepin-8-yl)oxy)acrylic Acid], the IC50 worked out at 0.27 µM on Human LBAT and 0.873 µM at Human ASBT.

`CCCCC1(CCCC)CN(c2ccccc2)c2cc(SC)c(O/C(C)=C/C(=O)O)cc2S(=O)(=O)N1` [Example 83, (E)-3-((3,3-dibutyl-7-(methylthio)-1,1-dioxido-5-phenyl-2,3,4,5-tetrahydro-1,2,5-benzothiadiazepin-8-yl)oxy)but-2-enoic Acid]: the IC50 on Human LBAT amounted to 4.92 µM; on Human ASBT, 0.018 µM.

As for `CCCCC1(CCCC)CN(c2ccc(Br)cc2)c2cc(SC)c(O/C=C(\F)C(=O)O)cc2S(=O)(=O)C1` [Example 94, (Z)-3-((5-(4-bromophenyl)-3,3-dibutyl-7-(methylthio)-1,1-dioxido-2,3,4,5-tetrahydro-1,5-benzothiazepin-8-yl)oxy)-2-fluoroacrylic Acid], the IC50 on Human LBAT stood at 0.096 µM; at Human ASBT, 0.042 µM.

Regarding `CCCCC1(CCCC)CN(c2ccccc2)c2cc(N(C)C)c(O/C=C(\F)C(=O)O)cc2S(=O)(=O)N1` [Example 97, (Z)-3-((3,3-dibutyl-7-(dimethylamino)-1,1-dioxido-5-phenyl-2,3,4,5-tetrahydro-1,2,5-benzothiadiazepin-8-yl)oxy)-2-fluoroacrylic Acid], the IC50 at Human LBAT is 0.341 µM; at Human ASBT, 0.009 µM.

As for `CCCCC1(CCCC)CN(c2ccc(C(=O)N(C)C)cc2)c2cc(SC)c(O/C=C(\F)C(=O)O)cc2S(=O)(=O)C1` [Example 104, (Z)-3-((3,3-dibutyl-5-(4-(dimethylcarbamoyl)phenyl)-7-(methylthio)-1,1-dioxido-2,3,4,5-tetrahydro-1,5-benzothiazepin-8-yl)oxy)-2-fluoroacrylic Acid], the IC50 on Human LBAT was found to be 0.29 µM; at Human ASBT, 3.33 µM.
